Where no end group is shown, it is not given here. The star is where a group is joined. FITC = O=C1OC2(c3ccc(O)cc3Oc3cc(O)ccc32)c2ccc(NC(=S)*)cc21; Acp = not defined here
How the values were obtained:
HepG2 cells = assay: Flow cytometry binding of FITC‐RS17 to HepG2 cells; format: cell-based, human; conditions: 1 μM FITC‐RS17, 1 h, 37℃
Description: (§1) The peptides were synthesized using the solid‐phase peptide synthesis method. Amino acid activation phase included 1‐hydroxybenzotriazole (HOBt) and N, N′‐diisopropylcarbodiimide (DIC). Deprotection agent was piperidine (PIP). Following synthesis, the peptides were cleaved with 90% of trifluoroacetic acid (TFA) and precipitated with ether to obtain the crude product. The crude peptides were purified by HPLC and the molecular weight were measured by online ESI‐MS, respectively. Besides, the FITC‐RS17 peptide was prepared by coupling with FITC through the Acp active group to RS17. The product was purified and analyzed by the same process.
(§2) The SCC‐13 human cutaneous squamous cell carcinoma cell lines, HepG2 human HCC cell line, THP‐1 human mononuclear cell line, and mouse mononuclear/macrophage cell lines were from Chinese Academy of Sciences in Shanghai. SCC‐13 and HepG2 cells were incubated in DMEM medium which contains 100 μg/ml of streptomycin and 50 μg/ml of penicillin. The medium also contains 10% of fetal bovine serum from Gibco Life Technologies. […]
(§3) The binding of RS17 to the CD47‐expressing cells were assessed by the Flow cytometry technique. […]. ^14 In brief, HepG2 and SCC‐13 cells were collected and adjusted to 3 × 10^6 cells/ml. […] After washing with PBS, the cells were analyzed with a flow cytometer (Miltenyi Biotec GmbH). Data were analyzed with FlowJo 7.6.

SCC‐13 cells = assay: Flow cytometry binding of FITC‐RS17 to SCC‐13 cells; format: cell-based, human; conditions: 1 μM FITC‐RS17, 1 h, 37℃
Description: as §1, §2, §3

[1] = Body weight / tolerability in nude mice, ex vivo experiment; conditions: 7 days
Description: Female Balb/c nude mice (4–5 weeks) were bred in the absence of pathogens to assess the antitumor activity of indirect therapies in vivo.
RFP‐positive HepG2 cells at a concentration of 2 × 10^7/ml were first co‐incubated for 1 h with 1 μM B6H12 (positive control) or RS17. The nude mice were separated into three groups (5 per group) and subcutaneously injected with 200 μl RFP‐positive HepG2 cells into the ventral side. Normal feeding lasted for 7 days. Body weight and tumor volume were measured in nude mice. Tumor dimensions were measured in two directions with and the formula of ½ × a × b ^2 (a, length; b, width) was used to calculate tumor volume. The intravital fluorescence intensity of the tumors were detected with PerkinElmer IVIS Spectrum on day 7.

CD47 protein = biological target: T1, CD47 protein (Homo sapiens, UniProt Q08722); assay: Microscale thermophoresis (MST), RS17–CD47 interaction; format: binding; conditions: Monolith NT.115, NT‐Analysis, Cy5-labeled CD47 mixed 1:1 with diluted peptide, 5 min, room temperature, read-out: dissociation constant (Kd) for RS17 and CD47 interaction
T1 construct: CD47 protein was from Cloud‐Clone; purchased Cloud‐Clone
Description: CD47 protein was from Cloud‐Clone. The CD47 protein was dissolved in a buffer solution without primary amine compounds and exchanged by mixed column A. The CD47 protein was stained by Cy5 fluorescent dye (Ruixin Biological Technology) and after staining, the labeled protein was purified by column B. Finally, the RS17 peptides were diluted and mixed with the labeled protein in a 1:1 ratio. After incubating at room temperature for 5 min, samples were detected and data were processed by Monolith NT.115 and NT‐Analysis, which were from NanoTemper.
Microscale thermophoresis (MST) is an effective technique that accurately quantitates the interaction between two molecules. It depends on the thermo‐swimming movement of a molecule, which is a directional transfer of the molecule across a temperature gradient dependent on molecular properties such as molecular size, electric charge, and conformation. ^39 A Monolith NT.115 instrument was used as a platform to perform the MST experiment and the results were analyzed using the accompanying NT‐Analysis software.

RFP HepG2 cells = conditions: in vivo, sc, 20 mg/kg
Description: RFP (CMV‐Puro) lentiviral particles were purchased from HanBio. 5 × 10^4 HepG2 in DMEM medium were seeded into each well of a 12‐well plate in presence of 10% FBS. A 6 μg/ml of Polybrene and 20 MOI lentivirus were added to each well. The cells were resuspended in DMEM medium in presence of 8 μg/ml puromycin after a 48‐h transfection. DMEM medium with 8 μg/ml of puromycin was replaced every 2 days for 1 week. RFP‐positive HepG2 cells were then acquired by flow cytometry. Polybrene and puromycin were from Sigma. Nude mice were subcutaneously injected with 2 × 10^7 RFP HepG2 cells into the ventral side and separated into three groups (5 per group). One of the groups was selected as the experimental group and received a daily subcutaneous injection with RS17 (20 mg/kg), the other two groups represented a positive control and a blank control and received a daily subcutaneous injection with B6H12 (20 mg/kg) and PBS, respectively. Daily injections were administered for 28 days. Body weight, tumor volume, and imaging on day 28 were carried out described above.

[2] = biological target: CD47 on SCC-13 and HepG2 tumor cells (human (endogenous in SCC-13 and HepG2)) (UniProt Q08722)
CD47 on SCC-13 and HepG2 tumor cells (human (endogenous in SCC-13 and HepG2)), sequence (Q08722 19-323): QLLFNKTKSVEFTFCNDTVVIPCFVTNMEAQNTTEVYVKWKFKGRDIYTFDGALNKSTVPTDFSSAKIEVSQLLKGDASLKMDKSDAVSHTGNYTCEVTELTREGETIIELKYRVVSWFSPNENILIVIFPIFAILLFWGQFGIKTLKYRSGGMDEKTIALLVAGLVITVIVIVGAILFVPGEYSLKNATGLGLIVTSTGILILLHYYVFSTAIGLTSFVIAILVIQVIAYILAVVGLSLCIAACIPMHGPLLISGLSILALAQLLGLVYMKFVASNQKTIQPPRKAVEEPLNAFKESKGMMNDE

FITC‐RS17: prepared by coupling with FITC through the Acp active group to RS17 ({FITC-Acp}-RRYKQDGGWSHWSPWSS; reading uncertain)
binding of FITC‐RS17 to HepG2 cells (in words) (HepG2 cells): effectively bound
binding of FITC‐RS17 to SCC‐13 cells (in words) (SCC‐13 cells): effectively bound

RRYKQDGGWSHWSPWSS [RS17]
tolerability [1]: well tolerated
Kd (CD47 protein): 3.86 ± 0.789 nM
inhibition of tumor growth (RFP HepG2 cells): > 50%

RRYKQDGGWSHWSPWSS [RS17 peptide]
in vivo: growth of HepG2 xenografts in nude mice with daily subcutaneous RS17 (20 mg/kg) for 28 days; pair blocked: CD47 on HepG2 and SIRPα on mouse macrophages [2]: > 50%
